Consider one compound from patent publication US20240010726A1, “LFA-1 SIGNALLING MEDIATOR FOR USE IN CANCER THERAPY” (Universität Basel, priority 2020, published 2024).

In this assay the test system is MC38-OVA tumor cells. The assay can be described thus: Murine MC38-OVA tumor model, in vivo PD-1 blockade. The following applies: OVA immunized mice; 3 mM MgCl2 or NaCl i.t. every third day, 8 cycles; anti-PD-1 Ab or isotype 200 μg i.p. day 9, 12, 15. Here is the method:
FIG. 1: Intratumoral magnesium administration improves adaptive anti-tumor immunity. (a) Schematic of experimental design. B1/6 mice, either immunized with OVA or left untreated, were inoculated subcutaneously with MC38-OVA tumor cells bilaterally on the flanks. From day 7, injection of 3 mM NaCl solution was applied in left flank tumor, whereas 3 mM MgCl2 solution was injected in contralateral tumor. This regimen was repeated every third day for a total of 8 cycles. (b) Tumor growth curves in non-immunized mice (n=20) (left panel), and immunized mice (n=19) (right panel). (c) Tumor growth curves in ±CD8 depleted mice (n=6-17). Results were pooled from 2 independent experiments, with n=6-12 mice each. (d) Absolute numbers of tumor-infiltrating CD8^+ T cells. (e) Number of tumor-infiltrating CD8^+ T cells positive for Ki67 (left panel), Granzyme B (middle panel) and CD25 (right panel). (f) Cell number of tumor-infiltrating CD8^+ T cells expressing PD-1 and Tim3. (g) Schematic of experimental design. B1/6 mice, immunized with OVA, were inoculated subcutaneously with MC38-OVA tumor cells unilaterally on the flank. From day 5, intratumoral injections of either 3 mM NaCl or 3 mM MgCl2 were initiated, and repeated every third day for 8 cycles. Mice were additionally injected with 200 μg i.p. of isotype control (IgG2a) or anti-PD-1 Ab on day 9, 12, and 15. […]

In the case of `[Mg+2]` [Mg^2+, Magnesium], the Host survival result is on record as “significantly improved animal survival” and the Tumor growth entry is on record as “improving immune control significantly”.
